Experimental data: patent EP2727916A1, “Neuroprotective multi-target directed drugs” (Universitat Autònoma de Barcelona, priority 2012, dated 2014)
“Also recorded” adds a separate entry of the source.

Experiments:
bovine lung SSAO = biological target: T1, bovine lung SSAO (Bos taurus, UniProt Q9TTK6); assay: Inhibition of semicarbazide sensitive amine oxidase (SSAO), radiochemical; type: biochemical
T1 construct: and bovine lung SSAO by compounds of the invention; from tissue; host or cells: bovine lung
T1 sequence (Q9TTK6 1-763): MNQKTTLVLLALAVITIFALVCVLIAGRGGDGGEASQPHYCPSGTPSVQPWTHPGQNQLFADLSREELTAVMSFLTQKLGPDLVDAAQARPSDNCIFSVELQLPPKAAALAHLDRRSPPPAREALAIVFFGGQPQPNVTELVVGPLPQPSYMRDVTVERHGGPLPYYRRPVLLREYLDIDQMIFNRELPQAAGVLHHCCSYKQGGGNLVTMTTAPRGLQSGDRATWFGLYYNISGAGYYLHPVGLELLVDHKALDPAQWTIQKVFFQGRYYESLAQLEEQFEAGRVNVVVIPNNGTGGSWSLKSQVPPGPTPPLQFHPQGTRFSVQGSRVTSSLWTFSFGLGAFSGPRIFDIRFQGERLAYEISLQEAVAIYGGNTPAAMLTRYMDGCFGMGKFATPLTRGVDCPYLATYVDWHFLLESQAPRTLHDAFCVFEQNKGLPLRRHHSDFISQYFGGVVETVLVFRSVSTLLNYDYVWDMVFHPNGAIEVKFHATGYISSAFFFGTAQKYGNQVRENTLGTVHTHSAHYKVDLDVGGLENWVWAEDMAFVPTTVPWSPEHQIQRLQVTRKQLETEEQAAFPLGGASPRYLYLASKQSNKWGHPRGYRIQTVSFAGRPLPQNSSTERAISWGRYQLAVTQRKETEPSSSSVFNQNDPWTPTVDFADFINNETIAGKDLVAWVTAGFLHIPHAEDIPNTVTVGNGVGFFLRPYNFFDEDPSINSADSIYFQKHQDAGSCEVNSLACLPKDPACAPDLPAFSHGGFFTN

ratMAO-B = biological target: T2, ratMAO-B (Rattus norvegicus, UniProt P19643); assay: Kinetic study of MAO-B inhibition (Lineweaver-Burk plots); type: biochemical; design: from tissue; host or cells: rat brain homogenate per the methods
T2 sequence (P19643 1-520): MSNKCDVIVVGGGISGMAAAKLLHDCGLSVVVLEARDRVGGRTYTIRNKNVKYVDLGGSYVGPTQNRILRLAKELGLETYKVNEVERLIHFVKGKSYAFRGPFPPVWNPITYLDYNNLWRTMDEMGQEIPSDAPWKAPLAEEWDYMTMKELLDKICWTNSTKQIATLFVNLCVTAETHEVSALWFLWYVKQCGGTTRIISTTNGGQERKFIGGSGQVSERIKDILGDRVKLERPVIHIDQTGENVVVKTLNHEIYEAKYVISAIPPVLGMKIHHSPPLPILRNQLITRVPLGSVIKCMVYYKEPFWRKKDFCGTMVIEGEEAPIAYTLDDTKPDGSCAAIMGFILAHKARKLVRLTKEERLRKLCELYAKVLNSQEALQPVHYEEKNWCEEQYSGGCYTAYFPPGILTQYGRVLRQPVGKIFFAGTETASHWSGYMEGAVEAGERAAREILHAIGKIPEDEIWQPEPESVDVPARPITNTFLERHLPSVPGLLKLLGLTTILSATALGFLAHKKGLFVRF
Description: (§1) Lineweaver-Burk reciprocal plots of initial velocity and substrate concentrations (0.1-1 mM) are presented. […] Lineweaver-Burk reciprocal plots of initial velocity and substrate concentrations (0.1-1 mM) are presented. […] Lineweaver-Burk reciprocal plots of initial velocity and substrate concentrations (0.1-1 mM) are presented. […] Three consecutive centrifuges were performed with buffer. […] 5 µM). All solution were made using Tris buffer pH7.4. […] 5 µM). All solution were made using Tris buffer pH7.4. […] 5 µM). All solution were made using Tris buffer pH7.4. Spectra were obtained after a Short-time incubation

[1] = Metal binding assay, spectrophotometric detection of Cu(II) complex; type: physicochemical; settings: 10 µM, Tris buffer pH7.4, Cu(SO4) 6.25 and 12.5 µM, few minutes after addition
Description: as §1
(§2) It is known that 8-quinolinol is a strong chelator for biometals such iron and copper. This is an important precondition for the antioxidative-type drugs because it is the excessive iron stores and iron-mediated generation of free radicals in the brain that are thought to be associated with neurodegenerative diseases. Therefore, only chelators with a higher selectivity for iron over copper are expected to chelate iron instead of copper and have potential neuroprotective effects. […] A spectrophotometric method is used for measurement of the copper/iron-complexes stability constants of the compounds.
(§3) The metal binding assay was performed by the spectrophotometric detection of the formation of Fe(III)- and Cu(II)-6 complex.

MAO-B [2] = biological target: T3, MAO-B (Rattus norvegicus, UniProt P19643); assay: Time-dependence of MAO-B inhibition (pre-incubation times); type: biochemical
T3 construct: from tissue; host or cells: rat brain homogenate per the methods
T3 sequence (P19643 1-520): T2 sequence (P19643 1-520)
Description: as §1
Independent inhibition assays were also performed at different pre-incubation periods for both two MAO isoforms (Figure 6). […]

[3] = Metal binding assay, spectrophotometric detection of Fe(III) complex; type: physicochemical; settings: 10 µM, Tris buffer pH7.4, Fe2(SO4)3 6.25 and 12.5 µM
Description: as §1, with “Spectra were obtained after a Short-time incubation” left out
as §2, §3

[4] = biological target: equine serum butyrylcholinesterase (eqBuChE) (Equus caballus, UniProt P81908); assay: biochemical; type: biochemical
MAO-B [5] = biological target: T3, MAO-B; assay: Reversibility study of MAO-B inhibition (centrifugation and washing); type: biochemical
Description: as §1

[6] = 20 µM, pre-incubation times 0-360 min

Sequence of equine serum butyrylcholinesterase (eqBuChE) (P81908 whole entry): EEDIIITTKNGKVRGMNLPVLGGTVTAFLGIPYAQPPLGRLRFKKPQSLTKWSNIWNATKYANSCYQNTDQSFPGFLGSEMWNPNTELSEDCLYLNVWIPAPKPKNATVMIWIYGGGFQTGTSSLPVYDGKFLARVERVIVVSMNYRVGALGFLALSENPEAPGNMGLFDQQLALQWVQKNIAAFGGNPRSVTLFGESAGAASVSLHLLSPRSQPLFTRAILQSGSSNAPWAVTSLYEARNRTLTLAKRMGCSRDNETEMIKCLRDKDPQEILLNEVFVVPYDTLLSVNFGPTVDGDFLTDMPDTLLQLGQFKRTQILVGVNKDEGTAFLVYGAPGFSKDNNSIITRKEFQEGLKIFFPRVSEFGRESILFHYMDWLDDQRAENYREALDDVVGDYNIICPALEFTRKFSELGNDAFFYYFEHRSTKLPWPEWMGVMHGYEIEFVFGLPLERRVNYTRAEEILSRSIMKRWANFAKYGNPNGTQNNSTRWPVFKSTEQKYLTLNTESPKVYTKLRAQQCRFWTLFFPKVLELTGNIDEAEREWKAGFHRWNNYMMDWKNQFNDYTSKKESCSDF

C#CCN(Cc1ccc(O)c2ncccc12)C(C#N)CCC1CCN(Cc2ccccc2)CC1 (centres unmarked) [Compound 6, 4-(1-benzylpiperidin-4-yl)-2-(((8-hydroxyquinolin-5-yl)methyl)(prop-2-yny)amino)butanenitrile]
IC50 (bovine lung SSAO): 2.01 ± 0.5 µM
type of MAO-B inhibition mechanism (ratMAO-B; Lineweaver-Burk reciprocal plots): non-competitive inhibition
Ki (ratMAO-B; estimated from the slopes of double reciprocal plots): 10.8 ± 2.43 µM
formation of Cu(II)-6 complex, UV-vis spectrum change [1]: The 240 nm-band completely dissapeared while a new one appeared at 275 nm
pre-incubation period to complete MAO-B activity inhibition (MAO-B [2]; [6]): ≥ 180 min
time-dependence of MAO-B inhibition (MAO-B [2]; [6]): irreversible behaviour; also recorded: time-dependent
IC50 (MAO-B [2]; pre-incubation time 0 min): 61.7 µM
IC50 (MAO-B [2]; pre-incubation time 30 min): 9.3 µM
IC50 (MAO-B [2]; pre-incubation time 60 min): 3.3 µM
IC50 (MAO-B [2]; pre-incubation time 240 min): 1.2 µM
formation of Fe(III)-6 complex, UV-vis spectrum change ([3]; few minutes after addition): no significative changes in the spectrum were observed
formation of Fe(III)-6 complex, UV-vis spectrum change ([3]; overnight incubation): bathocromic shift of the 240nm-band to the appearance of another one at 250nm
fold more active than donepezil 1 for eqBuChE inhibition [4]: 4.5 fold
IC50 ([4]; 20 minutes incubation at 37°C, mean ± standard error of the mean, read-out: IC50 eqBuChE): 1.63 ± 0.25 µM
BuChE/ AChE ([4]; ratio of IC50 values): 0.92
reversibility of MAO-B inhibition (MAO-B [5]; 30 min inhibition (6 at 20 µM, I-deprenyl 20 nM), three consecutive centrifugations and washings with buffer): reversibly inhibited
MAO-B activity recovering (MAO-B [5]; inhibited at 20 µM for 30 min, three consecutive centrifuges with buffer, mean ± SEM): 55.8 ± 4.0%
